# Read-outs that look alike come from different tables or passages of the source.
# Legend:
# [1] = tested on: streptozotocin (STZ)-diabetic rats; test: Rat model of diabetic neuropathy (STZ-diabetic rats); assay type: in vivo; details: 50 mg/L in drinking water
# Protocol: Our aim was to ascertain whether BST-4997 treatment could correct nerve dysfunction in streptozotocin (STZ)-diabetic rats. Animals (n=10) were made diabetic for 6 weeks (group D), following which they were treated for 2 weeks with BST-4997 (group DBST) given in the drinking water at a concentration of 50 mg/L. They were compared to control non-diabetic rats (groups C). Statistical significance is reported according to the legend: **, *** p<0.01, p<0.001 versus untreated controls; ### p<0.001 treatment effect versus untreated diabetics.
# FIG. 13 provides a graphical representation of the effect of BST-4997 on restoring nerve conduction velocity (NCV) in the STZ rats. Motor NCV was tested between the sciatic notch and knee for the nerve branch to tibialis anterior muscle, as described in Cameron et al., Q. J. Exp. Physiol. 74: 917-926 (1989); and Cameron et al., Exp. Neurol. 92: 757-761 (1986). Saphenous sensory NCV was measured between the groin and ankle.
# FIG. 14 provides a graphical representation of the effect of BST-4997 on restoring endoneurial perfusion in the STZ rats. Vascular blood flow, pressure, and conductance were measured.
# FIG. 15 provides a graphical representation of the effect of BST-4997 on improving pain related measures in the STZ rats. Responses to tactile allodynia, pressure, and thermal stimuli were measured.
# [2] = target: T1, rat albumin (Rattus norvegicus, UniProt P02770); test: Compound binding to plasma albumin (ultrafiltration, free compound), rat albumin; assay type: in vitro ADME; details: compound 10 μg/ml, rat albumin ~13 mg/ml
# T1 construct: from tissue; host or cells: plasma (from 'plasma albumin'; preparation not described)
# T1 sequence (P02770 25-608): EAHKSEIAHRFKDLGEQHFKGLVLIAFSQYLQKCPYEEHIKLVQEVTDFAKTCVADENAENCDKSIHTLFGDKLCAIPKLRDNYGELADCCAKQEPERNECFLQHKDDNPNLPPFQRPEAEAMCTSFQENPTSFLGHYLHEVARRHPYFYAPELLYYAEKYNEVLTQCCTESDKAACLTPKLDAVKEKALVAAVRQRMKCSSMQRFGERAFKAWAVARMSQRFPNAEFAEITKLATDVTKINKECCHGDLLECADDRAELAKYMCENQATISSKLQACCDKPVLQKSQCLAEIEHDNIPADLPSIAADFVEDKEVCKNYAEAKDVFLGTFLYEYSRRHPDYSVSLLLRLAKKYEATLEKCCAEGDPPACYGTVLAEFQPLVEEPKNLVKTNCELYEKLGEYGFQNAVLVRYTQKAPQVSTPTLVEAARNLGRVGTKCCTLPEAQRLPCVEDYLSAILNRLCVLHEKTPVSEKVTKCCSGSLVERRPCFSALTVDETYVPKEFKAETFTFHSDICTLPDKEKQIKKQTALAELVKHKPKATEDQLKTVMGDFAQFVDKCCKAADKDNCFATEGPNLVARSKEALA
# Protocol: (§1) This study was done to measure the binding of compounds of the present invention to plasma albumin. Such binding can result in longer plasma retention times and enhanced therapeutic efficacy for the compounds. The proteins tested were bovine serum albumin, bovine (BSA) at 40 mg/ml and rat albumin at ˜13 mg/ml.
# (§2) Spectrophotmetry: Two mL of protein solution in 0.1M phosphate buffer saline (PBS) at pH 7.4 was titrated with compound in 0.2 M phosphate buffer at pH 7.4. The protein concentration was prepared to have absorbance less than 1 at the observation wavelength range (250-500), and the total volume change during titration was controlled below 2%. The compound-protein binding detection was based on the shift of spectrum.
# Free compound measurement: One ml of compound and protein mixture was incubated at 37° C. for about 30 min and loaded into Centricon YM-10 (10,000 MW cut-off, for BSA) or Microcon YC-3 (3,000 MW cut-off). […] A fixed amount of filtrate aliquot was diluted to 0.6 ml with PBS at pH 7.4 (PBS was prepared using 1 tablet from Sigma dissolved in 200 ml deionized H2O) and measured by UV absorbance. To quantify the percentage of free compound, the same compound at the same concentration in PBS solution, as standard, was prepared in parallel through the same process, or a calibration curve was generated through the same process. […]
# [3] = tested on: conversion of Amadori compounds to post Amadori advanced glycation endproducts (bovine serum albumin and ribonuclease A glycated by ribose); test: Interrupted glycation: inhibition of post-Amadori AGE formation; assay type: biochemical; details: interrupted glycation with ribose, 37° C., pH 7.5; read-out: IC50 for inhibiting the conversion of Amadori compounds to post Amadori advanced glycation endproducts
# Protocol: The effect of [2,4′]Bipyridinyl-3′-ol, 5-Hydroxymethyl-4-(1H-imidazol-2-yl)-2-methyl-pyridin-3-ol, and 4-(1H-Imidazol-2-yl)-pyridin-3-ol on post-Amadori AGE formation during interrupted glycation of bovine serum albumin and ribonuclease A by ribose was determined in comparison to pyridoxamine. Modification with ribose was done at 37° C. in 0.2 M phosphate buffer of pH 7.5 containing 0.02% sodium azide. The solutions were kept in capped tubes and opened only to remove timed aliquots that were immediately frozen for later carrying out the various analyses. “Interrupted glycation” experiments were carried out by first incubating protein with the ribose at 37° C. for 8 or 24 h, followed by immediate and extensive dialysis against frequent cold buffer changes at 4° C. The samples were then re-incubated by quickly warming to 37° C. in the absence of external ribose. Aliquots were taken and frozen at various intervals for later analysis. (See U.S. Pat. No. 5,985,857)
# The interrupted glycation method for following post-Amadori kinetics of AGE formation allows for the rapid quantitative study of “late” stages of the glycation reaction. Importantly, this method allows for inhibition studies that are free of pathways of AGE formation that arise from glycoxidative products of free sugar or Schiff base (Namiki pathway). The experiments were designed to determine the half-maximal inhibitory concentration of these compounds (“IC50 values”) for inhibiting the conversion of Amadori compounds to post Amadori advanced glycation endproducts.
# [4] = target: T2, bovine serum albumin (Bos taurus, UniProt P02769); test: Compound binding to plasma albumin (ultrafiltration, free compound), BSA; assay type: in vitro ADME; details: BSA 40 mg/ml; for Kd: read-out: Computed (1:1) Kd; for fraction unbound at 8 μg/ml: compound 8 μg/ml
# T2 construct: from tissue; host or cells: plasma / serum (from the name; preparation not described)
# T2 sequence (P02769 25-607): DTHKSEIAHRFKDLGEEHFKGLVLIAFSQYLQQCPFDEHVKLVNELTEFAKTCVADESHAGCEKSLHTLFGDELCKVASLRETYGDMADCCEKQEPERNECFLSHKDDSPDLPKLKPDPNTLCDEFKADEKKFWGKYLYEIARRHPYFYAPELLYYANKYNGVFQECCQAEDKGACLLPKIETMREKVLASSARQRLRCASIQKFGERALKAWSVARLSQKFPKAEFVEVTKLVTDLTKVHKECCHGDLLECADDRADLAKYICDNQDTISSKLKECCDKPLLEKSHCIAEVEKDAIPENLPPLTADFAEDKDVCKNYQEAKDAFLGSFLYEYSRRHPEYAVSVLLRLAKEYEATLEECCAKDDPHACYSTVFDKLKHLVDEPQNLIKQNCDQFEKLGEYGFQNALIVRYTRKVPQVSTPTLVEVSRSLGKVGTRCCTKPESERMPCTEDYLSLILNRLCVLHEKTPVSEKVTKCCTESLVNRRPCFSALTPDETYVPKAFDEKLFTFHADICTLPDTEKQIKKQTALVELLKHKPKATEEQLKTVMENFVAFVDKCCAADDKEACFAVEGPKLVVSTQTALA
# Protocol: as §1, §2
# Free compound measurement: One ml of compound and protein mixture was incubated at 37° C. for about 30 min and loaded into Centricon YM-10 (10,000 MW cut-off, for BSA) or Microcon YC-3 (3,000 MW cut-off). The samples were centrifuged in a fixed-angle rotor at 6,000 rpm for about 6-8 min (Centricon) or at 9,000 rpm for about 15 min (Microcon) to allow about 10-20% of the volume to filter through. Free compound passes through the membrane while the free and complexed protein remains in the sample reservoir. The concentration of free compound in the filtrate is assumed to be the same as in the sample above the membrane. A fixed amount of filtrate aliquot was diluted to 0.6 ml with PBS at pH 7.4 (PBS was prepared using 1 tablet from Sigma dissolved in 200 ml deionized H2O) and measured by UV absorbance. To quantify the percentage of free compound, the same compound at the same concentration in PBS solution, as standard, was prepared in parallel through the same process, or a calibration curve was generated through the same process. 1 ml of PBS solution (as blank) and 1 ml of protein solution (as control) also went through the same process and measurement.
# Calculations: The method used to determine the percentage of free compound was either (a) % Free compound=(Asample−Acontrol)/Astandard×100, where, A is absorbance at selected wavelength; or (b) Obtaining free compound concentration of sample from calibration curve, and then divided by total concentration: Kd=[P][L]/[PL] (for 1:1 binding), using BSA MW=70,000.
# [5] = STZ rats diabetic 6 weeks, then 2 weeks treatment, FIG. 13
# [6] = STZ rats, 2 weeks treatment, FIG. 14
# [7] = STZ rats, 2 weeks treatment, FIG. 15
# [8] = bovine, bovine serum albumin solution (40 mg/ml), pH 7.4, 37° C.
structure (smiles),measurement,setting,value
"Cc1ncc(CO)c(-c2ncc[nH]2)c1O [BST4997, 5-Hydroxymethyl-4-(1H-imidazol-2-yl)-2-methyl-pyridin-3-ol]",diabetes-associated defect in motor nerve conduction velocity (NCV),[1]; [5],dramatically reduced
same,diabetes-associated defect in sensory nerve conduction velocity (NCV),[1]; [5],dramatically reduced
same,correction of nerve dysfunction,"[1]; STZ rats, 2 weeks treatment",effective in correcting nerve dysfunction
same,diabetes-associated defect in endoneurial blood flow,[1]; [6],dramatically reduced
same,diabetes-associated defect in endoneurial vascular conductance,[1]; [6],dramatically reduced
same,diabetes-associated defect in tactile allodynia,[1]; [7],dramatically reduced
same,diabetes-associated defect in thermal hyperalgesia (latency for foot withdrawal from a noxious heat stimulus),[1]; [7],dramatically reduced
same,Kd,[2]; read-out: Computed (1:1) Kd,350 µM
same,fraction unbound at 10 μg/ml,"[2]; rat albumin solution (~13 mg/ml), pH 7.4, 37° C., read-out: % Free BST4997",0.67
same,IC50,[3],200 to 300 µM
same,fraction unbound at 5 μg/ml,"[4]; bovine, bovine serum albumin solution (40 mg/ml), compound 5 μg/ml, pH 7.4, 37° C., read-out: % Free BST4997",0.31
same,fraction unbound at 10 μg/ml,"[4]; bovine, bovine serum albumin solution (40 mg/ml), compound 10 μg/ml, pH 7.4, 37° C., read-out: % Free BST4997",0.3
same,fraction unbound at 20 μg/ml,"[4]; bovine, bovine serum albumin solution (40 mg/ml), compound 20 μg/ml, pH 7.4, 37° C., read-out: % Free BST4997",0.38
same,Kd,[4]; compound 5 μg/ml,260 µM
same,Kd,[4]; compound 10 μg/ml,240 µM
same,Kd,[4]; compound 20 μg/ml,320 µM
"Cc1ncc(CO)c(CN)c1O [pyridoxamine, reference compound]",IC50,[3],~3000 µM
"Oc1cnccc1-c1ccccn1 [BST4944, [2,4′]Bipyridinyl-3′-ol]",IC50,[3],2000 µM
same,fraction unbound at 8 μg/ml,[4]; [8],0.34
"Oc1cnccc1-c1ncc[nH]1 [BST4996, 4-(1H-Imidazol-2-yl)-pyridin-3-ol]",IC50,[3],200 to 300 µM
same,fraction unbound at 8 μg/ml,[4]; [8],0.53

# From patent US20040122061A1, “Inhibitors of post-amadori advanced glycation end products” (BioStratum, Inc., priority 2002, published 2004)
